Our source for the IC50 values is ChEMBL document CHEMBL5137065, “Recent Advances with KDM4 Inhibitors and Potential Applications” (J Med Chem, 2022).

For test [1], the target named is T1, Lysine-specific demethylase 4A (Homo sapiens, UniProt O75164).
T1 sequence (O75164 whole entry): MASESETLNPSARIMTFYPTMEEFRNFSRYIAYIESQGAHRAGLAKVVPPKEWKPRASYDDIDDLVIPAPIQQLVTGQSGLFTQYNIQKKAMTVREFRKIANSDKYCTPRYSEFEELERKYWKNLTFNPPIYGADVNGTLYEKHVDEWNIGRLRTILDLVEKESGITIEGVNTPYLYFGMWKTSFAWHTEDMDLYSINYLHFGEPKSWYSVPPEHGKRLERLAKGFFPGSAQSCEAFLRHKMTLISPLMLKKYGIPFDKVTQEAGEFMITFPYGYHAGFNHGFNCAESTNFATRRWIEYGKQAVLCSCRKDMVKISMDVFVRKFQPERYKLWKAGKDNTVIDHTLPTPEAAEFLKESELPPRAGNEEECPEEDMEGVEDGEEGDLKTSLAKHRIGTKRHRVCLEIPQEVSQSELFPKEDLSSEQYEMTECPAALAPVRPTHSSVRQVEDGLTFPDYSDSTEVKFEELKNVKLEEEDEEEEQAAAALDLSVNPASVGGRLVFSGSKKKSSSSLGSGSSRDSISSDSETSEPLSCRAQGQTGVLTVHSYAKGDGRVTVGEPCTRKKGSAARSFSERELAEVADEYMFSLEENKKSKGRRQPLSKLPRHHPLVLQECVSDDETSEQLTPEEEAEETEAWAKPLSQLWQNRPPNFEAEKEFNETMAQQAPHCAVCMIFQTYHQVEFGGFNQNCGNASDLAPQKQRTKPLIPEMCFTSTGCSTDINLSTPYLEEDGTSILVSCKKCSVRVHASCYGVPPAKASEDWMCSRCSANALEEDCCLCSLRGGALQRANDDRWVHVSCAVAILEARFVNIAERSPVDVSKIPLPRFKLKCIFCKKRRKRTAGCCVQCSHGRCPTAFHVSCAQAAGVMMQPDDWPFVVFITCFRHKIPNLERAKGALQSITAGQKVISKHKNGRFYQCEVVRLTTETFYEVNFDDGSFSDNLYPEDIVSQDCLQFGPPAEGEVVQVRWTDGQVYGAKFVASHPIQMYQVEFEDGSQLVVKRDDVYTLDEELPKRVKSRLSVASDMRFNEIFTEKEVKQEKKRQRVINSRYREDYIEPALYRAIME

Test [2] deals with T2, Lysine-specific demethylase 4E (Homo sapiens, UniProt B2RXH2).
T2 sequence (B2RXH2 whole entry): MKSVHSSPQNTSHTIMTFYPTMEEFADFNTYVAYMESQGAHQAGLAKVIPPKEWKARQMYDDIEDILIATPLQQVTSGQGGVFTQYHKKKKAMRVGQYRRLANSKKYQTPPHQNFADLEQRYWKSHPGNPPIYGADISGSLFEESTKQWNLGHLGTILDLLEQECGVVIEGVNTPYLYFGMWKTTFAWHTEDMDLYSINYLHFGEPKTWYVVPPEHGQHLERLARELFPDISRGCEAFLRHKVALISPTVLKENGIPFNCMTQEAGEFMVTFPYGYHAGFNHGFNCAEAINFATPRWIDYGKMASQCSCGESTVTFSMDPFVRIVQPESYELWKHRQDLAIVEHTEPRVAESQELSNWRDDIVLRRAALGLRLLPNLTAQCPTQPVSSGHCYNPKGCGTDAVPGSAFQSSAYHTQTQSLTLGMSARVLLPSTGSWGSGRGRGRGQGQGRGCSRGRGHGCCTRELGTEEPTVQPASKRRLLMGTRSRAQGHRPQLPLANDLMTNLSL
Briefly: Inhibition of human KDM4E (1 to 378 residues) catalytic domain measured formaldehyde dehydrogenase (FDH)-coupled fluorescence assay.

SMILES strings stand for the structures.

Usually IC50 stands for the point on the concentration scale where inhibition reaches its midpoint. Consider `COC(=O)Cc1cc(O)n(-c2nc3ccccc3[nH]2)n1`, for which the concentration for half-maximal inhibition (IC50) in test [1] and in test [2] was 4 µM each time.
